Counter-ions that a name gives are not always drawn.

Data set [1] concerns the target T1, human H4 receptor (Homo sapiens, UniProt Q9H3N8).
T1 construct: expressed in transfected cells; host or cells: HEKf cells transduced with baculovirus
The experiment in a line: H4 Antagonist Functional cAMP Gi Assay. In kind it is cell-based. Particulars: H4 antagonist activity; for Kb: read-out: Human H4 CAMP fpKb (converted). Here is the method: H4 Antagonist Functional cAMP Gi Assay
HEKf cells were infected overnight using baculovirus expressing the human H4 receptor, then centrifuged at 1,200 rpm for 5 min, frozen in cell freezing medium (Sigma) and stored at −150° C. On the day of assay, the cells were thawed and resuspended in HBSS with 500 nM IBMX to achieve a density of 1,500 cells/well. H4 ligands were prepared in DMSO and stamped by LabCyte ECHO acoustic dispensing at 25 nL in low volume plates. 10 μL/well cells were plated in the presence of 1 μM forskolin, subjected to centrifugation at 1,200 rpm for 1 min and incubated for 30 min prior to addition of Cisbio cAMP detection reagents to a total volume 20 μL/well. For the antagonist assay, cells were pre-incubated with H4 antagonist ligands for 30 min prior to addition of EC80 concentration of histamine and a further 30 min incubation. Following detection reagent addition and shaking at room temperature for 60 min, cAMP accumulation was measured using HTRF on a PheraStar plate reader. EC50 values were generated using a 4-parameter logistical fit equation to quantify agonist potencies. Functional antagonist affinity values were generated using the Cheng-Prusoff equation to calculate a pKb value using the antagonist assay data.

The target in data set [2] is T1, human H4 receptor. The experiment in a line: H4 Antagonist Functional Dynamic Mass Redistribution Assay. In kind it is cell-based. Particulars: H4 antagonist activity, read-out: Human H4 DMR fpKb (converted). The protocol:
H4 Antagonist Functional Dynamic Mass Redistribution Assay
HEKf cells were infected using baculovirus expressing the human H4 receptor, plated into fibronectin-coated EPIC plates at a density of 10,000 cells/well and incubated overnight at 37° C. The medium on cells was changed to 30 μL HBSS with 20 mM HEPES per well and 30 nL DMSO were added per well by LabCyte ECHO acoustic dispensing. Following 2 h equilibration at room temperature, 30 nL of H4 ligands prepared in DMSO were stamped by LabCyte ECHO acoustic dispensing into seeded EPIC plates and cellular dynamic mass redistribution was monitored using a Corning EPIC plate reader. Following 45 min measurement, 30 nL/well of histamine EC80 was added and monitored to obtain antagonist assay data. Maximum baseline-corrected responses in […] were used to generate concentration response curves. EC50 values were generated using a 4-parameter logistical fit equation to quantify agonist potencies. Functional antagonist affinity values were generated using the Cheng-Prusoff equation to calculate a pKb value using the antagonist assay data.

For another data set, the target named is hERG (Homo sapiens, UniProt Q12809). Description: hERG Assay (QPatch automated patch clamp; single-concentration assay at 30 μM and pIC50 assay). Particulars: for inhibition at 30 µM: human, CHO cells stably expressing hERG. In general terms: The hERG channel carries a current that helps repolarise heart muscle cells.
Chain of hERG (Q12809 whole entry): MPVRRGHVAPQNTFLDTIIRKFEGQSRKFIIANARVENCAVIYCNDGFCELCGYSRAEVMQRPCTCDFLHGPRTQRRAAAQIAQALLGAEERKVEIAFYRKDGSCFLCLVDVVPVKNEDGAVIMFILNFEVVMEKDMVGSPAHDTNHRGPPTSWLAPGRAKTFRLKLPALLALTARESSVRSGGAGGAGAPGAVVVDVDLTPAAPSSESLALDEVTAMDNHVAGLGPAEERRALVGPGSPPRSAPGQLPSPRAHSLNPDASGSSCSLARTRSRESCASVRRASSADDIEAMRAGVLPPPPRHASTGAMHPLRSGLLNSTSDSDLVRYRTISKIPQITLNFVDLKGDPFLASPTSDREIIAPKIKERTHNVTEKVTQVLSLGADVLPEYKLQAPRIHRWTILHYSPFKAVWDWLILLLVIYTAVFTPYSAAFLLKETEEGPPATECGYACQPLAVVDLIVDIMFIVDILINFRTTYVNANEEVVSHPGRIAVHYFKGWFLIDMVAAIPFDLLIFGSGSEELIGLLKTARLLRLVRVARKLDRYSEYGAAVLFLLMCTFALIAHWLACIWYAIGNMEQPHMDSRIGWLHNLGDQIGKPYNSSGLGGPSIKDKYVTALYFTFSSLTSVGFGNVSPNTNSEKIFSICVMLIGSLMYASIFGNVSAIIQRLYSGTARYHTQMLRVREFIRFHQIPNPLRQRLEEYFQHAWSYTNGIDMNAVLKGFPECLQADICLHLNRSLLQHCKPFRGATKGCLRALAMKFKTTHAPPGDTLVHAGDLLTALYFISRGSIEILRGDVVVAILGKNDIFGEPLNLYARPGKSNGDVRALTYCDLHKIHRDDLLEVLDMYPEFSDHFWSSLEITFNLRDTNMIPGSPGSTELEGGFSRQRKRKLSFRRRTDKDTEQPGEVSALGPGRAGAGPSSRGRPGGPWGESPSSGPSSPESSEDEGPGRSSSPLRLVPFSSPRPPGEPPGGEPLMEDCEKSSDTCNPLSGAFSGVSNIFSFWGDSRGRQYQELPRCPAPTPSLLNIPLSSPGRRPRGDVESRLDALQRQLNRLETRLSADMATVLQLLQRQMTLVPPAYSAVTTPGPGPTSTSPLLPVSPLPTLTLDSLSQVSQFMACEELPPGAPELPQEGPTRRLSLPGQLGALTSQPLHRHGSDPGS

T1 sequence (Q9H3N8 whole entry): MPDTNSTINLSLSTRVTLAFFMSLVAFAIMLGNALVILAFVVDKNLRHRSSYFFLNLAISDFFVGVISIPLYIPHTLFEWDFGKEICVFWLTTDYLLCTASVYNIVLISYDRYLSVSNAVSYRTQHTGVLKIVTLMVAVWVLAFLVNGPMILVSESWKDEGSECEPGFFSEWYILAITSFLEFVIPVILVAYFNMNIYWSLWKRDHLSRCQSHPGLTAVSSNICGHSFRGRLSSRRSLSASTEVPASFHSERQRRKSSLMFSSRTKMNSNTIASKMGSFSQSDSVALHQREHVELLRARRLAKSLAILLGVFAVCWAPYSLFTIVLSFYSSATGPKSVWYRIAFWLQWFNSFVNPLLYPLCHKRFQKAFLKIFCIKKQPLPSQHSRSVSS

As usually defined, the IC50 is the concentration that inhibits the measured activity by half. Lower therefore signals higher potency. As usually defined, the inhibition is the change of the read-out against control, counted positive when it falls. Higher therefore signals a strong effect. Consider `CN[C@@H]1CCN(c2cc(-c3[nH]ncc3C)nc(N)n2)C1` [Example 4-1, (R)-4-(4-methyl-1H-pyrazol-5-yl)-6-(3-(methylamino)pyrrolidin-1-yl)pyrimidin-2-amine], for which the Kb at human H4 receptor [1] is 1.26 nM. The Kb on human H4 receptor [2] is 0.501 nM. On hERG, the IC50 is at least 100000 nM and the inhibition at 30 µM was 14%.

Regarding `CN[C@@H]1CCN(c2cc(-c3[nH]ncc3Cl)nc(N)n2)C1` [Example 4-3, (R)-4-(4-chloro-1H-pyrazol-5-yl)-6-(3-(methylamino)pyrrolidin-1-yl)pyrimidin-2-amine], the Kb at human H4 receptor [1] and at human H4 receptor [2] was 1.26 nM throughout. The inhibition at 30 µM against hERG was 34%.

Regarding `Cc1cn[nH]c1-c1cc(N2CC[C@@H](N)C2)nc(N)n1` [Example 4-5], the results for the Kb at human H4 receptor [1] and at human H4 receptor [2] were 10 nM and 2.51 nM, respectively. Further, at 30 µM the inhibition against hERG was 18%.

As to `CN[C@@H]1CCN(c2cc(-c3[nH]nc(C)c3C)nc(N)n2)C1` [Example 7-1, (R)-4-(3,4-dimethyl-1H-pyrazol-5-yl)-6-(3-(methylamino)pyrrolidin-1-yl)pyrimidin-2-amine dihydrochloride], the Kb on human H4 receptor [1] is 6.31 nM; at human H4 receptor [2], 20 nM. The compound also yielded an inhibition at 30 µM against hERG of 14%.

As for `CCc1n[nH]c(-c2cc(N3CC[C@@H](NC)C3)nc(N)n2)c1C` [Example 7-3], the Kb on human H4 receptor [1] is 31.6 nM; at human H4 receptor [2], 20 nM.

In the case of `CCc1[nH]ncc1-c1cc(N2CC[C@@H](NC)C2)nc(N)n1` [Example 9-2], the Kb at human H4 receptor [1] was 12.6 nM. For the same compound, at 30 µM the inhibition at hERG was 12%.

As to `CN[C@@H]1CCN(c2cc(-c3cn[nH]c3C3CC3)nc(N)n2)C1.O=C(O)C(F)(F)F.O=C(O)C(F)(F)F` [Example 9-4], at human H4 receptor [1], the “Human H4 CAMP fpKb” value amounted to 7.6. In addition, the “hERG % inhibition at 30 μM” value on hERG (single concentration 30 μM, QPatch) was found to be 17%.

As to `CN[C@@H]1CCN(c2cc(-c3cn(C)nc3C3CC3)nc(N)n2)C1` [Example 11-3, dihydrochloride], the Kb on human H4 receptor [1] is 501 nM. This compound also came in with an inhibition at 30 µM against hERG of 34%.

`CN[C@@H]1CCN(c2cc(-c3cn(C)nc3C(F)(F)F)nc(N)n2)C1` [Example 11-4, dihydrochloride]: the Kb at human H4 receptor [1] is 316 nM. Moreover, testing at 30 µM against hERG gave an inhibition of 46%.

`CN[C@@H]1CCN(c2cc(-c3cnn(C)c3C#N)nc(N)n2)C1` [Example 12-2]: the Kb at human H4 receptor [1] was 251 nM. This compound also displayed an inhibition at 30 µM against hERG of 14%.

Consider `CN[C@@H]1CCN(c2cc(-c3cnn4c3CCC4)nc(N)n2)C1` [Example 12-4, dihydrochloride], for which, on human H4 receptor [1], the Kb is 158 nM. Further, 30 µM produced 1% inhibition at hERG.

In the case of `CN[C@@H]1CCN(c2cc(N)nc(-c3cnn(C)c3C)c2)C1` [Example 14-1, (R)-6-(1,5-dimethyl-1H-pyrazol-4-yl)-4-(3-(methylamino)pyrrolidin-1-yl)pyridin-2-amine dihydrochloride], the Kb is 20 nM on human H4 receptor [1] and 12.6 nM at human H4 receptor [2].

Regarding `CCc1cc(-c2cc(N3CC[C@@H](NC)C3)nc(N)n2)[nH]n1` [Example 15-1], on human H4 receptor [1], the Kb is 3.16 nM. The same compound displayed an inhibition at 30 µM on hERG of 68%.

On to `CNC1CN(c2cc(-c3cc(C(F)(F)F)n[nH]3)nc(N)n2)C1` [Example 15-2], for which the Kb on human H4 receptor [2] was 10 nM.

Turning to `CN[C@H]1CCN(c2cc(-c3[nH]ncc3C)nc(N)n2)C1` [Example 16-1, ditrifluoroacetate], the Kb at human H4 receptor [1] was 31.6 nM. For the same compound, on hERG, at 30 µM the inhibition was 32%.

In the case of `CNC1(C)CCN(c2cc(-c3[nH]ncc3C)nc(N)n2)C1` (centres unmarked) [Example 16-2, ditrifluoroacetate], the Kb on human H4 receptor [1] was 50.1 nM. Also, on hERG, 30 µM produced 9% inhibition.

For `Cc1cn[nH]c1-c1cc(N2C[C@H]3CCCN[C@H]3C2)nc(N)n1` [Example 16-7, ditrifluoroacetate], at human H4 receptor [2], the Kb was 6.31 nM. This compound also registered a half-inhibitory concentration (IC50) against hERG of at least 100000 nM.

Take `CN[C@@H]1CCN(c2cc(-c3[nH]ncc3C(F)F)nc(N)n2)C1` [Example 16-8, ditrifluoroacetate]: the Kb on human H4 receptor [2] was 25.1 nM.

On to `CN[C@@H]1CCN(c2cc(-c3[nH]ncc3C(F)(F)F)nc(N)n2)C1` [Example 16-9, ditrifluoroacetate], for which the Kb on human H4 receptor [2] was 20 nM.

For `CN[C@@H]1CCN(c2cc(-c3[nH]ncc3F)nc(N)n2)C1` [Example 16-10, ditrifluoroacetate], at human H4 receptor [1], the Kb is 12.6 nM. On hERG, this compound yielded an inhibition at 30 µM of 21%.

With `Nc1nc(-c2[nH]ncc2Cl)cc(N2CC[C@@H](N)C2)n1` [Example 16-11], at human H4 receptor [1], the Kb is 7.94 nM. On hERG, the inhibition at 30 µM amounted to 27%.

Turning to `CNC1CN(c2cc(-c3[nH]ncc3Br)nc(N)n2)C1` [Example 16-13], the Kb at human H4 receptor [2] was 5.01 nM.

On to `CN[C@@H]1CCN(c2cc(-c3[nH]ncc3SC)nc(N)n2)C1` [Example 16-14], for which the Kb on human H4 receptor [2] is 25.1 nM.

As to `CNC1CN(c2cc(-c3[nH]nc(C)c3C)nc(N)n2)C1` [Example 17-1], at human H4 receptor [2], the Kb is 1.58 nM. On hERG, this compound came in with an IC50 of at least 31600 nM.

Consider `CN[C@@H]1CCN(c2cc(-c3[nH]nc(C)c3C(F)(F)F)nc(N)n2)C1` [Example 17-2], for which the Kb at human H4 receptor [1] was 5.01 nM. The compound further had an inhibition at 30 µM at hERG of 39%.

As to `CN[C@@H]1CCN(c2cc(-c3[nH]nc(C)c3F)nc(N)n2)C1` [Example 17-3], the Kb at human H4 receptor [2] is 3.98 nM.

Take `CN[C@H]1CCN(c2cc(-c3[nH]nc(C)c3Cl)nc(N)n2)C1` [Example 17-4, dihydrochloride]: the Kb on human H4 receptor [2] is 5.01 nM. Moreover, the inhibition at 30 µM against hERG was determined as 39%.

In the case of `CNC1CN(c2cc(-c3[nH]nc(C)c3Cl)nc(N)n2)C1` [Example 17-5], the Kb at human H4 receptor [2] is 0.794 nM. The same compound gave a concentration for half-maximal inhibition (IC50) on hERG of 25100 nM.

As to `Cc1n[nH]c(-c2cc(N3CC(N)C3)nc(N)n2)c1Cl` [Example 17-6, ditrifluoroacetate], the Kb at human H4 receptor [2] is 12.6 nM.

Regarding `CN[C@@H]1CCN(c2cc(-c3[nH]nc(C)c3O)nc(N)n2)C1` [Example 17-8], on human H4 receptor [2], the Kb is 39.8 nM.

As for `CN[C@@H]1CCN(c2cc(-c3[nH]nc(C)c3OC)nc(N)n2)C1` [Example 17-9], the Kb at human H4 receptor [2] was 3.98 nM.

For `CN[C@@H]1CCN(c2cc(-c3[nH]nc(C(F)F)c3C)nc(N)n2)C1` [Example 17-10, ditrifluoroacetate], the Kb on human H4 receptor [1] was 0.251 nM. This compound returned an inhibition at 30 µM against hERG of 57%.

For `CNC1CN(c2cc(-c3[nH]nc(C(F)F)c3C)nc(N)n2)C1` [Example 17-11, ditrifluoroacetate], the Kb on human H4 receptor [2] was 3.16 nM.

With `CN[C@@H]1CCN(c2cc(-c3[nH]nc(C(F)(F)F)c3C)nc(N)n2)C1` [Example 17-12], the Kb at human H4 receptor [1] is 1.58 nM. The same compound had an inhibition at 30 µM on hERG of 60%.

On to `CCc1n[nH]c(-c2cc(N3CC[C@@H](NC)C3)nc(N)n2)c1F` [Example 17-13], for which the Kb at human H4 receptor [2] was 50.1 nM.

As for `CN[C@@H]1CCN(c2cc(-c3[nH]nc(Cl)c3C)nc(N)n2)C1` [Example 17-14, dihydrochloride], at human H4 receptor [1], the Kb was 0.0631 nM. The inhibition at 30 µM against hERG was found to be 44%.

Consider `CN[C@@H]1CCN(c2cc(-c3[nH]nc(Cl)c3Cl)nc(N)n2)C1` [Example 17-15], for which the Kb at human H4 receptor [1] was 0.0501 nM. This compound displayed an inhibition at 30 µM on hERG of 75%.

Regarding `CN[C@@H]1CCN(c2cc(-c3[nH]nc(OC)c3Cl)nc(N)n2)C1` [Example 17-17], the Kb at human H4 receptor [2] is 5.01 nM. The compound also yielded an inhibition at 30 µM against hERG of 49%.

For the compound `CN[C@@H]1CCN(c2cc(N)nc(-c3[nH]ncc3C)c2)C1` [Example 18-1, ditrifluoroacetate], the Kb at human H4 receptor [2] is 0.631 nM.
